Results from ChEMBL document CHEMBL1151250, “A DNA-damaging oxoaporphine alkaloid from Piper caninum” (J Nat Prod, 2004).

Key:
Format in all cases: functional, organism-based
Saccharomyces cerevisiae [1] = assay: Antimicrobial activity against Saccharomyces cerevisiae RS321NpRAD52 in presence of glucose
Saccharomyces cerevisiae [2] = assay: Antimicrobial activity against Saccharomyces cerevisiae RS321NpRAD52 in presence of galactose
Saccharomyces cerevisiae [3] = assay: Antimicrobial activity against Saccharomyces cerevisiae RS321NYCp50 in presence of galactose

SMILES: CN1C(=O)C(=O)c2cc3c(c4c2c1cc1ccccc14)OCO3 [CEPHARADIONE A]
- IC50 (Saccharomyces cerevisiae [1]): 0.05 µg/mL
- IC50 (Saccharomyces cerevisiae [2]): 115 µg/mL
- IC50 (Saccharomyces cerevisiae [3]): 0.2 µg/mL
